Values belong to the compound of their own block, whether it stands above or below them.
Experiments:
[1] = test system: DN32.D3 NKT hybridoma cells; test: Stimulatory activity for NKT hybridoma cells (IL-2 secretion, ELISA); type: cell-based, mouse; conditions: for IL-2 production compared to α-GalCer: mouse CD1d-bearing RBL cells loaded 4 hrs, co-incubated with DN32.D3 for 16 hrs, FIG. 1; for Stimulatory effect (IL-2) compared to α-GalCer: low concentration (32 ng/mL)
Description: Determination of Stimulatory Activity for NKT Hybridoma Cell (Zhou et al., Science, 306:1786-1789, 2004)
Mouse CD1d-bearing rat basophilic leukemia (RBL) cells were incubated with various concentrations of α-GalCer or the α-GalCer derivatives prepared in Examples for 4 hrs. After removing free glycolipids by washing with PBS (phosphate-buffer saline) three times, RBL cells were incubated with DN32.D3 NKT hybridoma cells for 16 hrs. IL-2 secretion levels in the supernatant were determined through ELISA (Enzyme-Linked Immunosorbent Assay).

[2] = test system: Splenocytes from naïve C57BL/6 mice; test: Cytokine levels (IFN-γ, IL-4) produced by mouse splenocytes, ELISA; type: cell-based; conditions: 72 hrs; for IL-4 secretion compared to α-GalCer: high concentrations (125 ng/ml), FIG. 3(a); for IL-4 production compared with α-GalCer: FIG. 3(b) (2 ng/ml)
Description: Evaluation of Cytokine Levels Produced by Mouse Splenocyte
Splenocytes from naïve C57BL/6 mice were incubated with various concentrations of α-GalCer or α-GalCer derivatives for 72 hrs. IFN-γ and IL-4 secretion levels in the supernatant were determined through ELISA.

[3] = test system: NKT cells; conditions: literature (Goff et al., 2004); cited from earlier work
[4] = test system: naïve C57BL/6 mice; test: IFN-γ and IL-4 production level in vivo (serum, ELISA); conditions: 1 μg/mouse intravenously
Description: Examination of IFN-γ and IL-4 Production Level In Vivo
α-GalCer or the α-GalCer derivatives (1 μg/mouse) were intravenously injected into naïve C57BL/6 mice. The serum concentrations of IFN-γ and IL-4 at each time point were determined through ELISA.

Structure (SMILES): CCCCCCCCCCCCCC[C@@H](O)[C@@H](O)[C@H](CO[C@H]1OC(CO)[C@H](O)[C@H](O)[C@H]1O)n1cc(CCCCCC)nn1 (stereo partly drawn) [Example 1, (2S,3R,4S,5R)-2-((2S,3S,4R)-2-(4-hexyl-1H-1,2,3-triazol-1-yl)-3,4-dihydroxyoctadecyloxy)-6-(hydroxymethyl)-tetrahydro-2H-pyrane-3,4,5-triol]
IL-2 production compared to α-GalCer [1]: ineffective

Structure (SMILES): CCCCCCCCCCCCCC[C@@H](O)[C@@H](O)[C@H](CO[C@H]1OC(CO)[C@H](O)[C@H](O)[C@H]1O)n1cc(CCCCCCC)nn1 (stereo partly drawn) [Example 2, (2S,3R,4S,5R)-2-((2S,3S,4R)-2-(4-heptyl-1H-1,2,3-triazol-1-yl)-3,4-dihydroxyoctadecyloxy)-6-(hydroxymethyl)-tetrahydro-2H-pyrane-3,4,5-triol]
IL-4 secretion compared to α-GalCer [2]: equivalent or greater IL-4 secretion than did α-GalCer | IL-2 production compared to α-GalCer [1]: ineffective

melting point: 162 to 164 °C
Structure (SMILES): CCCCCCCCCCCCCCCCc1cn([C@@H](CO[C@H]2OC(CO)[C@H](O)[C@H](O)[C@H]2O)[C@H](O)[C@H](O)CCCCCCCCCCCCCC)nn1 (stereo partly drawn) [Example 3, (2S,3R,4S,5R)-2-((2S,3S,4R)-2-(4-hexadecyl-1H-1,2,3-triazol-1-yl)-3,4-dihydroxyoctadecyloxy)-6-(hydroxymethyl)-tetrahydro-2H-pyrane-3,4,5-triol]
IL-2 production compared to α-GalCer [1]: not active in practice

Structure (SMILES): CCCCCCCCCCCCCCCCCCCCCCCc1cn([C@@H](CO[C@H]2OC(CO)[C@H](O)[C@H](O)[C@H]2O)[C@H](O)[C@H](O)CCCCCCCCCCCCCC)nn1 (stereo partly drawn) [Example 4, (2S,3R,4S,5R)-2-((2S,3S,4R)-3,4-dihydroxy-2-(4-tricosyl-1H-1,2,3-triazol-1-yl)octadecyloxy)-6-(hydroxymethyl)-tetranydro-2H-pyrane-3,4,5-triol]
IL-4 secretion compared to α-GalCer [2]: equivalent or greater IL-4 secretion than did α-GalCer

melting point: 167 to 169 °C
Structure (SMILES): CCCCCCCCCCCCCCCCCCCCCCCCc1cn([C@@H](CO[C@H]2OC(CO)[C@H](O)[C@H](O)[C@H]2O)[C@H](O)[C@H](O)CCCCCCCCCCCCCC)nn1 (stereo partly drawn) [Example 5, (2S,3R,4S,5R)-2-((2S,3S,4R)-3,4-dihydroxy-2-(4-tetracosyl-1H-1,2,3-triazol-1-yl)octadecyloxy)-6-(hydroxymethyl)-tetrahydro-2H-pyrane-3,4,5-triol]
IL-4 secretion compared to α-GalCer [2]: equivalent or greater IL-4 secretion than did α-GalCer | Stimulatory effect (IL-2) compared to α-GalCer [1]: comparable stimulatory effects to α-GalCer

melting point: 165 to 167 °C
Structure (SMILES): CCCCCCCCCCCCCCCCCCCCCCCCCc1cn([C@@H](CO[C@H]2OC(CO)[C@H](O)[C@H](O)[C@H]2O)[C@H](O)[C@H](O)CCCCCCCCCCCCCC)nn1 (stereo partly drawn) [Example 6, (2S,3R,4S,5R)-2-((2S,3S,4R)-3,4-dihydroxy-2-(4-pentacosyl-1H-1,2,3-triazol-1-yl)octadecyloxy)-6-(hydroxymethyl)-tetrahydro-2H-pyrane-3,4,5-triol]

Structure (SMILES): CCCCCCCCCCCCCC[C@@H](O)[C@@H](O)[C@H](CO[C@H]1OC(CO)[C@H](O)[C@H](O)[C@H]1O)n1cc(CCCCCCc2ccccc2)nn1 (stereo partly drawn) [Example 7, (2S,3R,4S,5R)-2-((2S,3S,4R)-3,4-dihydroxy-2-(4-(6-phenylhexyl)-1H-1,2,3-triazol-1-yl)octadecyloxy)-6-(hydroxymethyl)-tetrahydro-2H-pyrane-3,4,5-triol]
IL-2 production compared to α-GalCer [1]: ineffective

Structure (SMILES): CCCCCCCCCCCCCC[C@@H](O)[C@@H](O)[C@H](CO[C@H]1OC(CO)[C@H](O)[C@H](O)[C@H]1O)n1cc(CCCCCCCc2ccccc2)nn1 (stereo partly drawn) [Example 8, (2S,3R,4S,5R)-2-((2S,3S,4R)-3,4-dihydroxy-2-(4-(7-phenylheptyl)-1H-1,2,3-triazol-1-yl)octadecyloxy)-6-(hydroxymethyl)-tetrahydro-2H-pyrane-3,4,5-triol]
IL-2 production compared to α-GalCer [1]: ineffective

Structure (SMILES): CCCCCCCCCCCCCC[C@@H](O)[C@@H](O)[C@H](CO[C@H]1OC(CO)[C@H](O)[C@H](O)[C@H]1O)n1cc(CCCCCCCCc2ccccc2)nn1 (stereo partly drawn) [Example 9, (2S,3R,4S,5R)-2-((2S,3S,4R)-3,4-dihydroxy-2-(4-(8-phenyloctyl)-1H-1,2,3-triazol-1-yl)octadecyloxy)-6-(hydroxymethyl)-tetrahydro-2H-pyrane-3,4,5-triol]
IL-2 production compared to α-GalCer [1]: ineffective

Structure (SMILES): CCCCCCCCCCCCCC[C@@H](O)[C@@H](O)[C@H](CO[C@H]1OC(CO)[C@H](O)[C@H](O)[C@H]1O)NC(=O)CCCCCCCCCCCN (stereo partly drawn) [Example 11, 12-amino-N-((2S,3S,4R)-3,4-dihydroxy-1-((2S,3R,4S,5R)-3,4,5-trihydroxy-6-(hydroxymethyl)-tetrahydro-2H-pyran-2-yloxy)octadecan-2-yl)dodecanamide]
IL-4 production compared with α-GalCer [2]: more IL-4 production compared with α-GalCer | Stimulatory effect (IL-2) compared to α-GalCer [1]: comparable stimulatory effects to α-GalCer

Structure (SMILES): CCCCCCCCCCCCCC[C@@H](O)[C@@H](O)[C@H](CO[C@H]1OC(CO)[C@H](O)[C@H](O)[C@H]1O)NC(=O)CCCCCCCCCCO (stereo partly drawn) [Example 12, N-((2S,3S,4R)-3,4-dihydroxy-1-((2S,3R,4S,5R)-3,4,5-trihydroxy-6-(hydroxymethyl)-tetrahydro-2H-pyran-2-yloxy)octadecan-2-yl)-11-hydroxyundecanamide]
Stimulatory effect (IL-2) compared to α-GalCer [1]: comparable stimulatory effects to α-GalCer

Structure (SMILES): CCCCCCCCCCCCCC[C@@H](O)[C@@H](O)[C@H](CO[C@H]1OC(CO)[C@H](O)[C@H](O)[C@H]1O)NC(=O)CCCCCCCCCCCO (stereo partly drawn) [Example 13, N-((2S,3S,4R)-3,4-dihydroxy-1-((2S,3R,4S,5R)-3,4,5-trihydroxy-6-(hydroxymethyl)-tetrahydro-2H-pyran-2-yloxy)octadecan-2-yl)-12-hydroxydodecanamide]
IL-4 production compared with α-GalCer [2]: more IL-4 production compared with α-GalCer

Structure (SMILES): CCCCCCCCCCCCCC[C@@H](O)[C@@H](O)[C@H](CO[C@H]1OC(CO)[C@H](O)[C@H](O)[C@H]1O)NC(=O)CCCCCCCCCCN(CCCCCCC)CCCCCCC (stereo partly drawn) [Example 16, 11-(diheptylamino)-N-((2S,3S,4R)-3,4-dihydroxy-1-((2S,3R,4S,5R)-3,4,5-trihydroxy-6-(hydroxymethyl)-tetrahydro-2H-pyran-2-yloxy)octadecan-2-yl)undecanamide]
IL-4 production compared with α-GalCer [2]: more IL-4 production compared with α-GalCer | Stimulatory effect (IL-2) compared to α-GalCer [1]: comparable stimulatory effects to α-GalCer

Structure (SMILES): CCCCCCCCCCCCCC[C@@H](O)[C@@H](O)[C@H](CO[C@H]1O[C@H](CO)[C@H](O)[C@H](O)[C@H]1O)NC(=O)CCCCCCC [PBS-25]
Secretion of Th2-cytokines compared to α-GalCer [3]: greater amount of Th2-cytokines, compared to α-GalCer

Structure (SMILES): CCCCCCCCCCCCCCCCCCCCCCCCCC(=O)N[C@@H](CO[C@H]1O[C@H](CO)[C@H](O)[C@H](O)[C@H]1O)[C@H](O)[C@H](O)CCCCCCCCCCCCCC [α-GalCer, α-Galactosylceramide]
Time of peak of serum IFN-γ levels after administration [4]: 12 h | Time of rapid increase of serum IL-4 levels after administration [4]: ≤ 2 h
